Here are results for 15 compounds from patent US7741495B2, “Indoline-sulfonamides compounds” (Taipei Medical University, priority 2006, dated 2010).

Structures can show the parent of a compound that is named as a salt.

In general, melting point refers to the temperature of the solid-liquid transition. Regarding `COc1ccc(S(=O)(=O)N2CCc3cccc(NC(=O)c4ccco4)c32)cc1` [compound 27, Furan-2-carboxylic acid [1-(4-methoxy-benzenesulfonyl)-2,3-dihydro-1H-indol-7-yl]-amide], the melting point lay within 163 to 164 °C.
Next, `COc1ccc(S(=O)(=O)N2CCc3cc(Br)cc(NC(=O)c4ccncc4)c32)cc1` [compound 37, N-[5-Bromo-1-(4-methoxy-benzenesulfonyl)-2,3-dihydro-1H-indol-7-yl]-isonicotinamide]: 191 to 192 °C; `COc1ccc(S(=O)(=O)N2CCc3cccc(NS(=O)(=O)c4ccc(F)cc4)c32)cc1` [compound 31, 4-Fluoro-N-[1-(4-methoxy-benzenesulfonyl)-2,3-dihydro-1H-indol-7-yl]-benzenesulfonamide]: 104 to 105 °C; `COc1ccc(S(=O)(=O)N2CCc3cccc(NC(=O)c4cccs4)c32)cc1` [compound 28, Thiophene-2-carboxylic acid [1-(4-methoxy-benzenesulfonyl)-2,3-dihydro-1H-indol-7-yl]-amide]: 188 to 189 °C.
Next, `COc1ccc(S(=O)(=O)N2CCc3cccc(NC(=O)N(C)c4ccccc4)c32)cc1` [compound 33, 3-[1-(4-Methoxy-benzenesulfonyl)-2,3-dihydro-1H-indol-7-yl]-1-methyl-1-phenyl-urea]: 199 to 201 °C; `COc1ccc(S(=O)(=O)N2CCc3cccc(NS(=O)(=O)c4ccccc4)c32)cc1` [compound 29, N-[1-(4-Methoxy-benzenesulfonyl)-2,3-dihydro-1H-indol-7-yl]-benzenesulfonamide]: 143 to 145 °C; `COc1ccc(S(=O)(=O)N2CCc3cccc(NC(=O)c4ccc([N+](=O)[O-])cc4)c32)cc1` [compound 22, N-[1-(4-Methoxy-benzenesulfonyl)-2,3-dihydro-1H-indol-7-yl]-4-nitro-benzamide]: 151 to 152 °C.
Under `COc1ccc(S(=O)(=O)N2CCc3cccc(NC(=O)Oc4ccccc4)c32)cc1` stands 164 to 166 °C; under `COc1ccc(S(=O)(=O)N2CCc3cccc(NC(=O)c4ccc(F)cc4)c32)cc1` [compound 21, 4-Fluoro-N-[1-(4-methoxy-benzenesulfonyl)-2,3-dihydro-1H-indol-7-yl]-benzamide], 184 to 185 °C; under `COc1ccc(S(=O)(=O)N2CCc3cccc(NC(C)=O)c32)cc1` [compound 35, N-[1-(4-Methoxy-benzenesulfonyl)-2,3-dihydro-1H-indol-7-yl]acetamide], 154 to 155 °C.
`COc1ccc(S(=O)(=O)N2CCc3cccc(NC(=O)c4ccc(C#N)cc4)c32)cc1` [compound 23, 4-Cyano-N-[1-(4-methoxy-benzenesulfonyl)-2,3-dihydro-1H-indol-7-yl]-benzamide] came in with a melting point of 179 to 180 °C.
Under `COc1ccc(S(=O)(=O)N2CCc3cc(Br)cc(NC(=O)c4ccco4)c32)cc1` [compound 38, Furan-2-carboxylic acid [5-bromo-1-(4-methoxy-benzenesulfonyl) -2,3-dihydro-1H-indol-7-yl]-amide] stands 170 to 171 °C; under `COc1ccc(S(=O)(=O)N2CCc3cccc(NCc4ccccc4)c32)cc1` [compound 34, Benzyl-[1-(4-methoxy-benzenesulfonyl)-2,3-dihydro-1H-indol-7-yl]-amine], 162 to 163 °C; under `COc1ccc(S(=O)(=O)N2CCc3cccc(NC(=O)c4ccccc4)c32)cc1` [compound 20, N-[1-(4-Methoxy-benzenesulfonyl)-2,3-dihydro-1H-indol-7-yl]-benzamide], 205 to 206 °C.
The compound `COc1ccc(S(=O)(=O)N2CCc3cccc(NC(=O)c4ccncc4)c32)cc1` (as salt: HCl) [compound 26, N-[1-(4-Methoxy-benzenesulfonyl)-2,3-dihydro-1H-indol-7-yl]-isonicotin amide] showed a melting point of 219 to 220 °C.
